Measured values from patent US7560468B2, “Substituted 1,4,8-triazaspiro[4,5]decan-2-one compounds” (Gruenenthal GmbH, priority 2004, dated 2009).

Experiments:
NA transporter = test: Inhibition of noradrenalin uptake in synaptosomes; format: biochemical
[1] = system: batrachotoxin (BTX) binding site of the sodium channel; test: Affinity to the batrachotoxin (BTX) binding site of the sodium channel; conditions: rat cerebrocortex synaptosomes, [3H]-batrachotoxinin A20 α-benzoate 10 nM; test concentration not given
5-HT transporter = target: T1, 5-HT transporter (Rattus norvegicus, UniProt P31652); test: Inhibition of 5-HT uptake in synaptosomes; format: biochemical; conditions: for inhibition at 1 µM: read-out: Uptake_5-HT, rat, 1 μM, % inhibition
T1 construct: from tissue; host or cells: rat brain synaptosomes (marrow/medulla and pons), P2 fraction
T1 sequence (P31652 whole entry): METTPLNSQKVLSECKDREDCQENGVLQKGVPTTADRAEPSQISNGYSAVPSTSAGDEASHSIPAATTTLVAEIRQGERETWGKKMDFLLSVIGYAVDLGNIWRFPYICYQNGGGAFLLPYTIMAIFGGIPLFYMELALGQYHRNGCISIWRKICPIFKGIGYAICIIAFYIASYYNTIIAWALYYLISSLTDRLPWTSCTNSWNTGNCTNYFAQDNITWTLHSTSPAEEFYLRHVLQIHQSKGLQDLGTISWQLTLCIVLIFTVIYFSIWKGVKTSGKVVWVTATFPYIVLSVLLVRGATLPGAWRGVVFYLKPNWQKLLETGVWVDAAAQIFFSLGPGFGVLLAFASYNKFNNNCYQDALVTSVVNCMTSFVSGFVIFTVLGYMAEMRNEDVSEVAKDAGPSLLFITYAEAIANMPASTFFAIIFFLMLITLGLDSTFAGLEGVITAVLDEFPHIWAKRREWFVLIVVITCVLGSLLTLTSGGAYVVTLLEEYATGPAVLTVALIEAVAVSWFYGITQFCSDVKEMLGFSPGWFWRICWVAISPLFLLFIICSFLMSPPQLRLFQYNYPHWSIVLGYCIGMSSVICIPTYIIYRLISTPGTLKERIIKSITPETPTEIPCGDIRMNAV

COc1cc(C)c(S(=O)(=O)N2CCC3(CC2)NC(=O)C(Cc2ccccc2)N3)c(C)c1C (stereo not drawn) [Example 4, 3-Benzyl-8-(4-methoxy-2,3,6-trimethylbenzolsulfonyl)-1,4,8-triazaspiro[4,5]decan-2-one]
Uptake (NA), rat, 10 μM, % inhibition (NA transporter): 34% | BTX Inhibition [1]: 53

CC(C)CC1NC2(CCN(C(=O)NCc3ccc(Cl)c(Cl)c3)CC2)N(Cc2ccccc2C#N)C1=O (stereo not drawn) [Example 217, 1-(2-Cyanobenzyl)-3-isobutyl-2-oxo-1,4,8-triazaspiro[4,5]decan-8-carboxylic acid 3,4-dichlorobenzylamide]
Uptake (NA), rat, 10 μM, % inhibition (NA transporter): 39% | BTX Inhibition [1]: 78

CCCCN1C(=O)C(C(C)C)NC12CCN(C(=S)Nc1c(F)c(F)c(F)c(F)c1F)CC2 (stereo not drawn) [Example 152, 1-Butyl-3-isopropyl-2-oxo-1,4,8-triazaspiro[4,5]decan-8-thiocarboxylic acid pentafluorobenzolamide-amide]
Uptake (NA), rat, 10 μM, % inhibition (NA transporter): 37% | BTX Inhibition [1]: 39

CC(C)C1NC2(CCN(C(=S)Nc3ccccc3)CC2)N(Cc2ccccc2)C1=O (stereo not drawn) [Example 156, 1-Benzyl-3-isopropyl-2-oxo-1,4,8-triazaspiro[4,5]decan-8-thiocarboxylic acid benzolamide]
Uptake (NA), rat, 10 μM, % inhibition (NA transporter): 33%

COc1ccccc1NC(=S)N1CCC2(CC1)NC(C(C)C)C(=O)N2Cc1ccccc1 (stereo not drawn) [Example 155, 1-Benzyl-3-isopropyl-2-oxo-1,4,8-triazaspiro[4,5]decan-8-thiocarboxylic acid (2-methoxy-benzol)amide]
Uptake (NA), rat, 10 μM, % inhibition (NA transporter): 52% | BTX Inhibition [1]: 32

COC(=O)c1ccc(CN2C(=O)C(C(C)C)NC23CCN(C(=O)Nc2cccc(OC)c2)CC3)cc1 (stereo not drawn) [Example 223, Methyl 4-[3-isopropyl-8-(3-methoxy-benzolcarbamoyl)-2-oxo-1,4,8-triazaspiro[4,5]dec-1-ylmethyl]-benzoate]
Uptake (NA), rat, 10 μM, % inhibition (NA transporter): 31%

C=CCN1C(=O)C(C(C)C)NC12CCN(C(=S)NCc1ccc(F)cc1)CC2 (stereo not drawn) [Example 162, 1-Allyl-3-isopropyl-2-oxo-1,4,8-triazaspiro[4,5]decan-8-thiocarboxylic acid 4-fluorobenzylamide]
Uptake (NA), rat, 10 μM, % inhibition (NA transporter): 26%

CN1C(=O)C(Cc2ccccc2)NC12CCN(C(=S)NCc1ccc(Cl)cc1)CC2 (stereo not drawn) [Example 175, 3-Benzyl-1-methyl-2-oxo-1,4,8-triazaspiro[4,5]decan-8-thiocarboxylic acid 4-chlorobenzylamide]
Uptake (NA), rat, 10 μM, % inhibition (NA transporter): 32% | BTX Inhibition [1]: 63

CCCCN1C(=O)C(CCSC)NC12CCN(C(=S)NCc1ccccc1)CC2 (stereo not drawn) [Example 160, 1-Butyl-3-(2-methylsulfanylethyl)-2-oxo-1,4,8-triazaspiro[4,5]decan-8-thiocarboxylic acid benzylamide]
Uptake (NA), rat, 10 μM, % inhibition (NA transporter): 42% | BTX Inhibition [1]: 63

COC(=O)c1ccc(CN2C(=O)C(C(C)C)NC23CCN(C(=S)NCC2CCCO2)CC3)cc1 (stereo not drawn) [Example 137, Methyl 4-{3-isopropyl-2-oxo-8-[(tetrahydrofuran-2-ylmethyl)thiocarbamoyl]-1,4,8-triazaspiro[4,5]dec-1-ylmethyl}-benzoate]
Uptake (NA), rat, 10 μM, % inhibition (NA transporter): 30% | BTX Inhibition [1]: 37

CC(C)CC1NC2(CCN(C(=S)NCc3ccccc3)CC2)N(Cc2ccccc2C#N)C1=O (stereo not drawn) [Example 170, 1-(2-Cyanobenzyl)-3-isobutyl-2-oxo-1,4,8-triazaspiro[4,5]decan-8-thiocarboxylic acid benzylamide]
Uptake (NA), rat, 10 μM, % inhibition (NA transporter): 46% | BTX Inhibition [1]: 53

CSCCC1NC2(CCN(C(=O)Nc3ccc(OC(F)(F)F)cc3)CC2)N(C)C1=O (stereo not drawn) [Example 222, 1-Methyl-3-(2-methylsulfanylethyl)-2-oxo-1,4,8-triazaspiro[4,5]decan-8-carboxylic acid (4-trifluoromethoxy-benzol)amide]
Uptake (NA), rat, 10 μM, % inhibition (NA transporter): 30% | BTX Inhibition [1]: 48

CSCCC1NC2(CCN(C(=O)NCc3ccc(Cl)c(Cl)c3)CC2)N(Cc2ccccc2C#N)C1=O (stereo not drawn) [Example 229, 1-(2-Cyanobenzyl)-3-(2-methylsulfanylethyl)-2-oxo-1,4,8-triazaspiro[4,5]decan-8-carboxylic acid 3,4-dichlorobenzylamide]
Uptake (NA), rat, 10 μM, % inhibition (NA transporter): 40% | BTX Inhibition [1]: 69

COC(=O)c1ccc(CN2C(=O)C(C(C)C)NC23CCN(C(=O)NC2CCCCC2)CC3)cc1 (stereo not drawn) [Example 206, Methyl 4-(8-cyclohexylcarbamoyl-3-isopropyl-2-oxo-1,4,8-triazaspiro[4,5]dec-1-ylmethyl)benzoate]
Uptake (NA), rat, 10 μM, % inhibition (NA transporter): 39%

CCOC(=O)NC(=S)N1CCC2(CC1)NC(C(C)C)C(=O)N2Cc1ccc(C(=O)OC)cc1 (stereo not drawn) [Example 167, Methyl 4-(8-ethoxycarbonylaminocarbothioyl-3-isopropyl-2-oxo-1,4,8-triazaspiro[4,5]dec-1-ylmethyl)benzoate]
Uptake (NA), rat, 10 μM, % inhibition (NA transporter): 42%

COc1ccccc1NC(=S)N1CCC2(CC1)NC(CCSC)C(=O)N2Cc1ccccc1C#N (stereo not drawn) [Example 183, 1-(2-Cyanobenzyl)-3-(2-methylsulfanylethyl)-2-oxo-1,4,8-triazaspiro[4,5]decan-8-thiocarboxylic acid (2-methoxy-benzol)amide]
Uptake (NA), rat, 10 μM, % inhibition (NA transporter): 29% | BTX Inhibition [1]: 37

CSCCC1NC2(CCN(C(=S)Nc3ccc(Cl)cc3)CC2)N(Cc2cccc(C#N)c2)C1=O (stereo not drawn) [Example 172, 1-(3-Cyanobenzyl)-3-(2-methylsulfanylethyl)-2-oxo-1,4,8-triazaspiro[4,5]decan-8-thiocarboxylic acid (4-chlorobenzol)amide]
Uptake (NA), rat, 10 μM, % inhibition (NA transporter): 47% | BTX Inhibition [1]: 59

CN(C)S(=O)(=O)N1CCC2(CC1)NCC(=O)N2Cc1ccccc1 [Example 9, 1-Benzyl-2-oxo-1,4,8-triazaspiro[4,5]decan-8-sulfonic acid dimethylamide]
Uptake (NA), rat, 10 μM, % inhibition (NA transporter): 40%

C#CCN1C(=O)C(CC(C)C)NC12CCN(C(=S)Nc1cc(Cl)cc(Cl)c1)CC2 (stereo not drawn) [Example 195, 3-Isobutyl-2-oxo-1-prop-2-ynyl-1,4,8-triazaspiro[4,5]decan-8-thiocarboxylic acid (3,5-dichlorobenzol)amide]
Uptake (NA), rat, 10 μM, % inhibition (NA transporter): 30% | BTX Inhibition [1]: 77

CCOC(=O)CN1C(=O)C(CCSC)NC12CCN(C(=O)Nc1ccccc1)CC2 (stereo not drawn) [Example 203, Ethyl[3-(2-methylsulfanylethyl)-2-oxo-8-benzolcarbamoyl-1,4,8-triazaspiro[4,5]dec-1-yl]-acetate]
Uptake (NA), rat, 10 μM, % inhibition (NA transporter): 40% | BTX Inhibition [1]: 32

COC(=O)c1ccc(CN2C(=O)C(C(C)C)NC23CCN(C(=S)Nc2c(F)c(F)c(F)c(F)c2F)CC3)cc1 (stereo not drawn) [Example 164, Methyl 4-(3-isopropyl-2-oxo-8-pentafluorobenzolthiocarbamoyl-1,4,8-triazaspiro[4,5]dec-1-ylmethyl)benzoate]
Uptake (NA), rat, 10 μM, % inhibition (NA transporter): 58% | BTX Inhibition [1]: 42

CSCCC1NC2(CCN(C(=S)NC(C)c3ccccc3)CC2)N(Cc2cccc(C#N)c2)C1=O (stereo not drawn) [Example 181, 1-(3-Cyanobenzyl)-3-(2-methylsulfanylethyl)-2-oxo-1,4,8-triazaspiro[4,5]decan-8-thiocarboxylic acid (1-benzol-ethyl)amide]
Uptake (NA), rat, 10 μM, % inhibition (NA transporter): 40% | BTX Inhibition [1]: 57

CC(C)CC1NC2(CCN(C(=S)Nc3cc(C(F)(F)F)cc(C(F)(F)F)c3)CC2)N(Cc2ccccc2C#N)C1=O (stereo not drawn) [Example 169, 1-(2-Cyanobenzyl)-3-isobutyl-2-oxo-1,4,8-triazaspiro[4,5]decan-8-thiocarboxylic acid (3,5-bis-trifluoromethylbenzol)amide]
Uptake (NA), rat, 10 μM, % inhibition (NA transporter): 44% | BTX Inhibition [1]: 91

CSCCC1NC2(CCN(C(=O)Nc3ccc(OC(F)(F)F)cc3)CC2)N(Cc2ccc(F)cc2)C1=O (stereo not drawn) [Example 237, 1-(4-Fluorobenzyl)-3-(2-methylsulfanylethyl)-2-oxo-1,4,8-triazaspiro[4,5]decan-8-carboxylic acid (4-trifluoromethoxy-benzol)amide]
Uptake_5-HT, rat, 1 μM, % inhibition (5-HT transporter): 39% | BTX Inhibition [1]: 87

CCCCN1C(=O)C(C(C)C)NC12CCN(C(=S)Nc1ccccc1C(=O)OC)CC2 (stereo not drawn) [Example 143, Methyl 2-[(1-butyl-3-isopropyl-2-oxo-1,4,8-triazaspiro[4,5]decan-8-carbothioyl)amino]-benzoate]
inhibition at 1 µM (5-HT transporter): 32% | BTX Inhibition [1]: 51

O=C(Nc1cc(F)ccc1F)N1CCC2(CC1)NC(Cc1ccccc1)C(=O)N2Cc1ccccc1F (stereo not drawn) [Example 230, 3-Benzyl-1-(2-fluorobenzyl)-2-oxo-1,4,8-triazaspiro[4,5]decan-8-carboxylic acid (2,5-difluorobenzol)amide]
Uptake_5-HT, rat, 1 μM, % inhibition (5-HT transporter): 63% | BTX Inhibition [1]: 78

CCOC(=O)CN1C(=O)C(Cc2ccccc2)NC12CCN(S(=O)(=O)c1ccccc1)CC2 (stereo not drawn) [Example 66, Ethyl(8-benzolsulfonyl-3-benzyl-2-oxo-1,4,8-triazaspiro[4,5]dec-1-yl)acetate]
Uptake_5-HT, rat, 1 μM, % inhibition (5-HT transporter): 64% | BTX Inhibition [1]: 39

CCCCN1C(=O)C(CCSC)NC12CCN(C(=S)Nc1cc(Cl)ccc1Cl)CC2 (stereo not drawn) [Example 120, 1-Butyl-3-(2-methylsulfanylethyl)-2-oxo-1,4,8-triazaspiro[4,5]decan-8-thiocarboxylic acid (2,5-dichlorobenzol)amide]
Uptake_5-HT, rat, 1 μM, % inhibition (5-HT transporter): 58% | BTX Inhibition [1]: 49

COC(=O)c1ccc(CN2C(=O)CNC23CCN(S(=O)(=O)Cc2ccccc2)CC3)cc1 [Example 51, Methyl 4-(2-Oxo-8-benzolmethansulfonyl-1,4,8-triazaspiro[4,5]dec-1-ylmethyl)benzoate]
Uptake_5-HT, rat, 1 μM, % inhibition (5-HT transporter): 62% | BTX Inhibition [1]: 31

CSCCC1NC2(CCN(S(=O)(=O)N(C)C)CC2)N(Cc2ccc3ccccc3c2)C1=O (stereo not drawn) [Example 75, 3-(2-Methylsulfanylethyl)-1-naphthalin-2-ylmethyl-2-oxo-1,4,8-triazaspiro[4,5]decan-8-sulfonic acid dimethylamide]
inhibition at 1 µM (5-HT transporter): 74% | BTX Inhibition [1]: 62
